The values below come from PMC8020153 (Journal of Advanced Research, 2020).

In general, Kd refers to the concentration at which binding is half-saturated.

The experiment addresses pyruvate kinase isozyme type M2 (PKM2) (Homo sapiens, UniProt P14618). As to the kind of experiment: SPR with immobilized recombinant human PKM2. The format is binding.

Sequence of pyruvate kinase isozyme type M2 (PKM2) (P14618 2-531): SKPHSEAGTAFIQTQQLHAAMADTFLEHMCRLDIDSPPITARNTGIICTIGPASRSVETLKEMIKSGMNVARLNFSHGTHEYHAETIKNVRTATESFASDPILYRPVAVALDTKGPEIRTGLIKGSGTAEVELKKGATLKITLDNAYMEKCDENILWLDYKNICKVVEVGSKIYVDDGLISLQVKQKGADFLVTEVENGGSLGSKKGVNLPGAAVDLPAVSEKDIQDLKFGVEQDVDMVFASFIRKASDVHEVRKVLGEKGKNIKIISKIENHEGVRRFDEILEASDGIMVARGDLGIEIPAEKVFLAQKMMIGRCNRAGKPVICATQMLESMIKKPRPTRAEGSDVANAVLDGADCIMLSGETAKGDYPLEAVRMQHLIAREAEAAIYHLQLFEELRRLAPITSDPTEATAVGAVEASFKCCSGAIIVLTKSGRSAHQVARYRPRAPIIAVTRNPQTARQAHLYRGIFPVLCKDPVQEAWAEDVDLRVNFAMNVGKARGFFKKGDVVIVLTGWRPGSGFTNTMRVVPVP

For the molecule `C1=Cc2ccccc2Nc2ccccc21` [ISB, Iminostilbene], the Kd worked out at 18.6 µM.
